According to US12391671B2, “Allosteric EGFR inhibitors and methods of use thereof” (Dana-Farber Cancer Institute, Inc., priority 2019, dated 2025):
Counter-ions that a name gives are not always drawn. Like-named read-outs stand apart in the source and are kept apart here.

Experiments:
[1] = system: EGFR mutant L858R/T790M Ba/F3 cells; test: Ba/F3 cell proliferation model (Cell Titer Glo), EGFR L858R/T790M; assay type: cell-based, murine; conditions: 72 hours
Description: Example 26: Ba/F3 Cell Proliferation Models
The EGFR mutant L858R and L858R/T790M Ba/F3 cells have been previously described (Zhou, W., et al. Nature 462, 2009, 1070-1074). All cell lines were maintained in RPM 1640 (Cellgro; Mediatech Inc., Herndon. CA) supplemented with 10% FBS, 100 units/mL penicillin, 100 units/mL streptomycin. The EGFR I941R mutation was introduced via site directed mutagenesis using the Quick Change Site-Directed Mutagenesis kit (Stratagene; La Jolla, CA) according to the manufacturer's instructions. All constructs were confirmed by DNA sequencing. The constructs were shuttled into the retroviral vector JP1540 using the Cre-recombination system (Agilent Technologies, Santa Clara, CA). Ba/F3 cells were then infected with retrovirus per standard protocols, as described previously (Zhou, et al, Nature 2009). Stable clones were obtained by selection in puromycin (2 μg/ml).
Growth and inhibition of growth was assessed by the Cell Titer Glo® assay (Promega, Madison, WI) and was performed according to the manufacturer's instructions. The Cell Titer Glo® assay is a luminescence-based method used to determine the number of viable cells based on quantitation of the ATP present, which is directly proportional to the amount of metabolically active cells present. Ba/F3 cells of different EGFR genotypes were exposed to compounds as a single agent or in combination with 1 μg/mL cetuximab for 72 hours and the number of cells used per experiment was determined empirically as has been previously established (Zhou, et al., Nature 2009). All experimental points were set up in triplicates in 384-well plates and all experiments were repeated at least three times. […] The curves were fitted using a non-linear regression model with a sigmoidal dose response.

EGFR L858R = EGFR L858R (Homo sapiens (Human), UniProt P00533, L858R); test: HTRF-based EGFR biochemical assay (L858R); conditions: 100 μM ATP, enzyme 0.1 nM
Chain of EGFR L858R (P00533 25-1210 L858R): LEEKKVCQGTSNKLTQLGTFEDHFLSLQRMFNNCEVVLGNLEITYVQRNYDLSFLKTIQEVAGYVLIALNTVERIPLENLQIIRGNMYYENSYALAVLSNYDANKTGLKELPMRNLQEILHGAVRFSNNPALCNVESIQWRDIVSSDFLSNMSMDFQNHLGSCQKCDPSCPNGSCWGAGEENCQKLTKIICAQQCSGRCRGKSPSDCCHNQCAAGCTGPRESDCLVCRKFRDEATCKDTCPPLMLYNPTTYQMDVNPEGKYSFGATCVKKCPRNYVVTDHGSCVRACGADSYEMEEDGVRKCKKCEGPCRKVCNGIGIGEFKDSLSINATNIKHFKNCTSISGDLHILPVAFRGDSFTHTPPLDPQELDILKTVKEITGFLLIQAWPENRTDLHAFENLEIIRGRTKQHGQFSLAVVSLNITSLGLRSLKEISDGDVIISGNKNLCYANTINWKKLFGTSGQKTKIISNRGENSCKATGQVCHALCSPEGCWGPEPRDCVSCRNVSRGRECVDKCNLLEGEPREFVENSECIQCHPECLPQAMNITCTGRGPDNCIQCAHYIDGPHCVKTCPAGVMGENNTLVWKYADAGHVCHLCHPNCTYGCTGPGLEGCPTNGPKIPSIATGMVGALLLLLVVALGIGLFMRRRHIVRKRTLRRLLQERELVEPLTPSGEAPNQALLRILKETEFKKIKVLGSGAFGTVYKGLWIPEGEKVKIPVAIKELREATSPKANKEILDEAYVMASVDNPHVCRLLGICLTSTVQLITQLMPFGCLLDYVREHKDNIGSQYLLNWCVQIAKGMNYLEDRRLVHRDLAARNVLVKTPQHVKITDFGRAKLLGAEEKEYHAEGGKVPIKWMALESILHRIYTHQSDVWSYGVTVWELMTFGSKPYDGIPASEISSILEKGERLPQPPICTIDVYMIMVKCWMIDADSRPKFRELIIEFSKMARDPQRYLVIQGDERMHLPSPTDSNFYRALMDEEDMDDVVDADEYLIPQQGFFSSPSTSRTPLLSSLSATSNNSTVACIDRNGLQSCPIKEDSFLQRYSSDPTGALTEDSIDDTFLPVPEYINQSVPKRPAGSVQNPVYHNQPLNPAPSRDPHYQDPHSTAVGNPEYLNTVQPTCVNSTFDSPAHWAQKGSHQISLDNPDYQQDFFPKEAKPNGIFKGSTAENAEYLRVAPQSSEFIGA
Protocol: (§1) Example 25: HTRF-Based EGFR Biochemical Assays
(§2) EGFR biochemical activity measurements were carried out using the homogeneous time-resolved fluorescence (HTRF) assay (Cisbio), inhibitors and DMSO normalizations were first dispensed to empty black low-volume 384-well plates (Corning) with 0300 digital liquid dispenser (HP). All reactions were carried out at room temperature and solutions were added to plates with a Multidrop Combi Reagent Dispenser (ThermoFisher). The reaction mixture (10 μL final volume) contained 1 μM tyrosine kinase peptide-biotin substrate and mutant EGFR in a reaction buffer (50 mM HEPES pH 7.0, 5 mM MgCl2, 1 mM MnCl2, 0.01% BSA, 2 mM TCEP, 0.1 mM NaVO4). Enzyme concentrations were adjusted to accommodate varying kinase activities (L858R 0.1 nM, L858R/T790M 0.02 nM). Enzyme reaction solution (2× concentrations, 5 μL) was added to 384-well plates containing compounds and incubated for 30 mins. Enzyme reactions were initiated with the addition of 5 μL of ATP to a final concentration of 100 μM and reacted for 20 mins. Reactions were quenched with the addition of 10 μL of phospho-tyrosine antibody-Europium(III) cryptate (1-to-180 volume ratio) and Streptavidin-XL665 (46.7 nM) in EDTA-containing detection buffer, then incubated at room temperature for 1 hour, and read with a PHERAstar plate reader (excitation=337 nm, emission=620 nm and 665 nm).

EGFR L858R/T790M = EGFR L858R/T790M (Homo sapiens (Human), UniProt P00533, L858R/T790M); test: HTRF-based EGFR biochemical assay (L858R/T790M); conditions: 100 μM ATP, enzyme 0.02 nM
Chain of EGFR L858R/T790M (P00533 25-1210 T790M/L858R): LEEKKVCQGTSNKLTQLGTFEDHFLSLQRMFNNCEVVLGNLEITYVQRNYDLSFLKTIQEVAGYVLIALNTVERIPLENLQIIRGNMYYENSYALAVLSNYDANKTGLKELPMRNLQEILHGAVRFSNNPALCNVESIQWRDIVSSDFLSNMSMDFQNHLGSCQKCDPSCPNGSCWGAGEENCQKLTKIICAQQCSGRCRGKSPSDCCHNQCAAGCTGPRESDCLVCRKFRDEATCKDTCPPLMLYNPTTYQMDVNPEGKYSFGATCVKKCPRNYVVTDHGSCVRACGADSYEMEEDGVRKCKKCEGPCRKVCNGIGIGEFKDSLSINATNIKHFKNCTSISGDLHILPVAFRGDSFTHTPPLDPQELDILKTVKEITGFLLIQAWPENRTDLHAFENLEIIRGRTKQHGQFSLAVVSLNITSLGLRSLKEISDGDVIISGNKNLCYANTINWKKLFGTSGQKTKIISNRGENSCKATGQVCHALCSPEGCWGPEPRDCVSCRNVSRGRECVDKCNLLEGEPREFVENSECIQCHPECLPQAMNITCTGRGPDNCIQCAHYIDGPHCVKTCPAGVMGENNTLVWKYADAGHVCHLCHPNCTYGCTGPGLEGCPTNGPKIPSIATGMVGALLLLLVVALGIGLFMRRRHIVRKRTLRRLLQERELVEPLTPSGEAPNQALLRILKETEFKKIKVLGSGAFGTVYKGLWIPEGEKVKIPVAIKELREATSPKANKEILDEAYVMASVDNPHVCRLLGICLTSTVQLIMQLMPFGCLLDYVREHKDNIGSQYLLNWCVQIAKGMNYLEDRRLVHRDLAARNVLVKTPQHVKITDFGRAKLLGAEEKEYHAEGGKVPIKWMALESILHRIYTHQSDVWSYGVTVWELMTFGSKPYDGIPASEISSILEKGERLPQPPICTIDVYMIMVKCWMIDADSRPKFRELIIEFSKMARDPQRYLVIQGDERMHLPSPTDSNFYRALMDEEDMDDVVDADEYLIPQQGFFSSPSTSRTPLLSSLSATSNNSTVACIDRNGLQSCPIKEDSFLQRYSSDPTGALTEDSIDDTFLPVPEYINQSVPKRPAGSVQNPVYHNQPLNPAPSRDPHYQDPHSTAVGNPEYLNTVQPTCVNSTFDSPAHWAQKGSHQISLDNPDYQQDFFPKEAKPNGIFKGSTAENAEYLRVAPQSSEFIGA
Protocol: as §1, §2

[2] = Mus musculus, BaF3, single agent, read-out: Cell IC50 BaF3 EGFR L858R/T790M
[3] = in combination with 1 μg/mL cetuximab, read-out: Cell IC50 BaF3 EGFR L858R/T790M (+cetux.)

| IC50 [1, 2] | IC50 [1, 3] | IC50 (EGFR L858R) | IC50 (EGFR L858R/T790M) | Structure (SMILES) |
| --- | --- | --- | --- | --- |
| 0.95 µM | 0.02 µM | 0.006 µM | 0.001 µM | CN1CCC(c2ccc(-c3ccc4c(c3)C(=O)N([C@H](c3nc5ccccc5[nH]3)c3cc(F)ccc3O)C4)cc2)CC1 (single isomer, unassigned) [Compound 023] |
| 1.57 µM | 0.01 µM | 0.007 µM | 0.002 µM | CN(C)CCOc1ccc(-c2ccc3c(c2)C(=O)N(C(c2nc4ccccc4[nH]2)c2cc(F)ccc2O)C3)cc1 (centres unmarked) [Compound 040, 2-[1H-benzimidazol-2-yl-(5-fluoro-2-hydroxy-phenyl)methyl]-6-[4-[2-(dimethyl-amino)ethoxy]phenyl]isoindolin-1-one;hydrochloride] |
| 2.54 µM | 0.02 µM | 0.006 µM | 0.002 µM | CN1CC(c2ccc(-c3ccc4c(c3)C(=O)N(C(c3nc5ccccc5[nH]3)c3cc(F)ccc3O)C4)cc2)C1 (centres unmarked) [Compound 049, 2-[1H-benzimidazol-2-yl-(5-fluoro-2-hydroxy-phenyl)methyl]-6-[4-(1-methylazetidin-3-yl)phenyl]isoindolin-1-one] |
| 0.59 µM | 0.01 µM | 0.003 µM | 0.0007 µM | CN1CCC(F)(c2ccc(-c3ccc4c(c3)C(=O)N(C(c3nc5ccccc5[nH]3)c3cc(F)ccc3O)C4)cc2)CC1 (centres unmarked) [Compound 016, 2-[1H-Benzimidazol-2-yl-(5-fluoro-2-hydroxy-phenyl)methyl]-6-[4-(4-fluoro-1-methyl-4-piperidyl)phenyl]isoindolin-1-one; hydrochloride] |
| 1.93 µM | 0.02 µM | 0.012 µM | 0.004 µM | CN1CCC(c2ccc(-c3cnc4c(c3)C(=O)N(C(c3nc5ccccc5[nH]3)c3cc(F)ccc3O)C4)cc2)CC1 (centres unmarked) [Compound 010, 6-[1H-Benzimidazol-2-yl-(5-fluoro-2-hydroxy-phenyl)methyl]-3-[4-(1-methyl-4-piperidyl)phenyl]-7H-pyrrolo[3,4-b]pyridin-5-one] |
| 0.79 µM | 0.01 µM | > 0.1 µM | 0.013 µM | O=C1c2cc(-c3ccc(N4CCOCC4)cc3)ccc2CN1C(c1nc2ccccc2[nH]1)c1cc(F)ccc1O (centres unmarked) [Compound 059, 2-(1H-benzimidazol-2-yl-(5-fluoro-2-hydroxy-phenyl)-methyl]-6-(4-morpholinopheny)-isoindolin-1-one; hydrochloride] |
| 3.05 µM | 0.18 µM | 0.15 µM | 0.011 µM | CN1CCC(c2ccc(-c3ccc4c(c3)C(=O)N(C(c3cccc(F)c3)c3nc5cccnc5[nH]3)C4)cc2)CC1 (centres unmarked) [Compound 025] |
| 1.22 µM | 0.02 µM | 0.008 µM | 0.001 µM | CN1CCC(c2ccc(-c3ccc4ncn(C(c5cccc(F)c5)c5nc6ccccc6[nH]5)c(=O)c4c3F)cc2)CC1 (centres unmarked) [Compound 005, 3-((1H-Benzo[d]imidazol-2-yl)(3-fluorophenyl)methyl)-5-fluoro-6-(4-(1-methylpiperidin-4-yl)phenyl)-quinazolin-4(3H)-one 2,2,2-trifluoroacetate] |
| 1.1 µM | 0.02 µM | 0.015 µM | 0.002 µM | CN1CCC(c2ccc(-c3ccc4c(c3)C(=O)N(C(c3nc5cnccc5[nH]3)c3cc(F)ccc3O)C4)cc2)CC1 (centres unmarked) [Compound 015, 2-[(5-Fluoro-2-hydroxy-phenyl)-(1H-imidazo[4,5-c]pyridin-2-yl)methyl]-6-[4-(1-methyl-4-piperidyl)phenyl]isoindolin-1-one;hydrochloride] |
| 0.56 µM | 0.005 µM | 0.006 µM | 0.001 µM | CN1CCC(c2ccc(-c3ccc4c(=O)n(C(c5nc6ccccc6[nH]5)c5cc(F)ccc5O)cc(F)c4c3)cc2)CC1 (centres unmarked) [Compound 053, 2-[1H-benzimidazol-2-yl-(5-fluoro-2-hydroxy-phenyl)-methyl]-4-fluoro-6-[4-(1-methyl-4-piperidyl)phenyl]isoquinolin-1-one; hydrochloride] |
| 1.36 µM | 0.03 µM | 0.002 µM | 0.0003 µM | CN1CCC(c2ccc(-c3ccc4c(n3)C(=O)N(C(c3nc5ccccc5[nH]3)c3cc(F)ccc3O)C4)cc2)CC1 (centres unmarked) [Compound 028, 6-[1H-Benzimidazol-2-yl-(5-fluoro-2-hydroxy-phenyl)methyl]-2-[4-(1-methyl-4-piperidyl)phenyl]-5H-pyrrolo[3,4-b]pyridin-7-one] |
| – | – | 0.065 µM | 0.049 µM | Cc1c[nH]c([C@H](c2cc(F)ccc2O)N2Cc3ccc(-c4ccc(C5CCN(C)CC5)cc4)cc3C2=O)n1 (single isomer, unassigned) [Compound 105] |
| – | – | 0.001 µM | 0.002 µM | Cc1c[nH]c([C@@H](c2cc(F)ccc2O)N2Cc3ccc(-c4ccc(C5CCN(C)CC5)cc4)c(F)c3C2=O)n1 (single isomer, unassigned) [Compound 94] |
| – | – | 0.004 µM | 0.002 µM | CN1CCC(c2ccc(-c3ccc4c(=O)n(C(c5nc6ccccc6[nH]5)c5cc(F)ccc5O)ccc4c3)cc2F)CC1 (centres unmarked) [Compound 109, 2-[1H-Benzimidazol-2-yl-(5-fluoro-2-hydroxy-phenyl)methyl]-6-[3-fluoro-4-(1-methyl-4-piperidyl)phenyl]isoquinolin-1-one; dihydrochloride] |
| – | – | 0.01 µM | 0.008 µM | COc1cc2cn(C(c3nc4ccccc4[nH]3)c3cc(F)ccc3O)nc2cc1-c1ccc(C2CCN(C)CC2)cc1 (centres unmarked) [Compound 099, 2-[1H-Benzimidazol-2-yl-[5-methoxy-6-[4-(1-methyl-4-piperidyl)phenyl]indazol-2-yl]methyl]-4-fluoro-phenol] |
| – | – | 0.006 µM | 0.004 µM | CN1CCC(c2ccc(-c3ccc4c(=O)n(C(c5nc6c(F)cccc6[nH]5)c5cc(F)ccc5O)ccc4c3)cc2)CC1 (centres unmarked) [Compound 102, 2-((4-Fluoro-1H-benzo[d]imidazol-2-yl)(5-fluoro-2-hydroxyphenyl)methyl)-6-(4-(1-methylpiperidin-4-yl)phenyl)isoquinolin-1(2H)-one] |
| – | – | 0.003 µM | 0.004 µM | Cc1cnc(C(c2cc(F)ccc2O)N2Cc3ccc(-c4ccc(C5CCN(C)CC5)cc4)c(F)c3C2=O)[nH]1 (centres unmarked) [Compound 093, 7-Fluoro-2-[(5-fluoro-2-hydroxy-phenyl)-(5-methyl-1H-imidazol-2-yl)methyl]-6-[4-(1-methyl-4-piperidyl)phenyl]isoindolin-1-one] |
| – | – | 0.011 µM | 0.004 µM | CN1CCC(c2ccc(-c3ccc4c(=O)n([C@@H](c5nc6ccccc6[nH]5)c5cc(F)ccc5O)ccc4c3)cc2)CC1 (single isomer, unassigned) [Compound 067] |
| – | – | 0.016 µM | 0.036 µM | CN1CCC(c2ccc(-c3cc4nn(C(c5nc6ccccc6[nH]5)c5cc(F)ccc5O)cc4cc3O)cc2)CC1 (centres unmarked) [Compound 097, 2-[1H-Benzimidazol-2-yl-(5-fluoro-2-hydroxy-phenyl)methyl]-6-[4-(1-methyl-4-piperidyl)phenyl]indazol-5-ol] |

| Structure (SMILES) | IC50 [1, 2] | IC50 [1, 3] | IC50 (EGFR L858R) | IC50 (EGFR L858R/T790M) |
| --- | --- | --- | --- | --- |
| CN1CCC(c2ccc(-c3ccc4c(c3)C(=O)N(C(c3nc5c(Cl)cccc5[nH]3)c3cc(F)ccc3O)C4)cc2)CC1 (centres unmarked) [Compound 047, 2-[(4-chloro-1H-benzimidazol-2-yl)-(5-fluoro-2-hydroxy-phenyl)-methyl]-6-[4-(1-methyl-4-piperidyl)phenyl]isoindolin-1-one; formic acid] | 1.84 µM | 0.08 µM | 0.014 µM | 0.002 µM |
| CN1CCC(c2ccc(-c3ccc4c(c3)C(=O)N(C(c3nc5cc(F)ccc5[nH]3)c3cc(F)ccc3O)C4)cc2)CC1 (centres unmarked) [Compound 046, 2-[(5-fluoro-1H-benzimidazol-2-yl)-(5-fluoro-2-hydroxy-phenyl)-methyl]-6-[4-(1-methyl-4-piperidyl)phenyl]isoindolin-1-one; formic acid] | 0.86 µM | 0.02 µM | 0.004 µM | 0.0007 µM |
